For 5 compounds, AC50 and IC50 results are on record in ChEMBL document CHEMBL1201862, “PubChem BioAssay data set” (2004).

One assay addresses Cytochrome P450 2D6 (Homo sapiens, UniProt P10635). In words: qHTS Assay for Inhibitors and Substrates of Cytochrome P450 2D6. [Related pubchem assays: 410 ]. The assay is classed as ADME. As to conditions: read-out: Potency. (In general: In qHTS, concentration-response curves come from the screen itself.)
The next assay has as its target Cytochrome P450 2C19 (Homo sapiens, UniProt P33261). Kind of assay: qHTS Assay for Inhibitors and Substrates of Cytochrome P450 2C19. [Related pubchem assays: 410 ]. The assay is classed as ADME. The following applies: read-out: Potency.
Assay [1] addresses T1, Carboxy-terminal domain RNA polymerase II polypeptide A small phosphatase 1 (Homo sapiens, UniProt Q9GZU7).
T1 sequence (Q9GZU7 whole entry): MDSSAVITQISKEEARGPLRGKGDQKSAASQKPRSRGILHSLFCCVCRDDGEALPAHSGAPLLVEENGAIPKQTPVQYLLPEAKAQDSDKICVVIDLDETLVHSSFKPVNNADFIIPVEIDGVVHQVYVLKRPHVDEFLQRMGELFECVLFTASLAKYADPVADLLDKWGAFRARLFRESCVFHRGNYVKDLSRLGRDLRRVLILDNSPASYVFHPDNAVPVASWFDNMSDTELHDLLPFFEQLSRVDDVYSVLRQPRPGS
Kind of assay: CTDSP1 inhibitors, concentration-response, biochemical, absorbance readout, ultra-high-throughput screen actives (AID 540297). The assay is classed as functional.

In a further assay the target is NS3 (Hepatitis C virus, UniProt A3EZJ3). Kind of assay: PubChem AID 2173. Details: species or system Hepacivirus hominis.
Assay [2] deals with T2, Sentrin-specific protease 1 (Homo sapiens, UniProt Q9P0U3).
T2 sequence (Q9P0U3 whole entry): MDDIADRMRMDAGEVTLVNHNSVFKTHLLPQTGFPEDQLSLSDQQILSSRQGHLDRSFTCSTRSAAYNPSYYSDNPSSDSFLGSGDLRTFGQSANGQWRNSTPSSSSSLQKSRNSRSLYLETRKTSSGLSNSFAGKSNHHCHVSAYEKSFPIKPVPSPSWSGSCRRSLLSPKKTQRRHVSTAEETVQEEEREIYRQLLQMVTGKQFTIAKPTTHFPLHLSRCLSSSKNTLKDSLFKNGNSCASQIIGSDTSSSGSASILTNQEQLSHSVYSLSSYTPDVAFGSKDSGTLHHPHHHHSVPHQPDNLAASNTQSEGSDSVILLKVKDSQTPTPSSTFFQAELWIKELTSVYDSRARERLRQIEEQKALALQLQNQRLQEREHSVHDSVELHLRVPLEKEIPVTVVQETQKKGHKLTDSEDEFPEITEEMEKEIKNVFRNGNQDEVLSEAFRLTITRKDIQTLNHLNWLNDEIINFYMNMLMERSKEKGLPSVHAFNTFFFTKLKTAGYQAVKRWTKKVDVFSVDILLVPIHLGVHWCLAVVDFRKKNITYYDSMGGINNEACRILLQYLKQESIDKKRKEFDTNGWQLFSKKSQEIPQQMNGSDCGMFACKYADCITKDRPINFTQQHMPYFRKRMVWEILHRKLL
In words: SENP1 catalytic domain blockers, concentration series – biochemical, kinetic FRET, dose response (AID 651697). As to conditions: read-out: IC50_Mean. It counts as functional.

The target of assay [3] is T2, Sentrin-specific protease 1. In words: Dose response confirmation of small molecule inhibitors of the catalytic domain of the SUMO protease, SENP1 in a FRET assay. The assay is classed as functional. As to conditions: read-out: IC50_Mean.
The nature of assay [4]: Counterscreen for IDE inhibitors: Luminescence-based cell-based high throughput dose response assay to identify compounds that are cytotoxic to HEK cells. [Related pubchem assays: 434962 (Primary screen (IDE inhibitors in singlicate)), 449730 (Counterscreen (Cytotoxicity in triplicate)), 435028 (Confirmation (IDE inhibitors in triplicate)) …. It counts as functional. As to conditions: HEK293. A general note: The purpose of a counterscreen is to sort out artefacts and off-target activity.

A further assay deals with T3, Insulin-degrading enzyme (Homo sapiens, UniProt P14735).
T3 sequence (P14735 whole entry): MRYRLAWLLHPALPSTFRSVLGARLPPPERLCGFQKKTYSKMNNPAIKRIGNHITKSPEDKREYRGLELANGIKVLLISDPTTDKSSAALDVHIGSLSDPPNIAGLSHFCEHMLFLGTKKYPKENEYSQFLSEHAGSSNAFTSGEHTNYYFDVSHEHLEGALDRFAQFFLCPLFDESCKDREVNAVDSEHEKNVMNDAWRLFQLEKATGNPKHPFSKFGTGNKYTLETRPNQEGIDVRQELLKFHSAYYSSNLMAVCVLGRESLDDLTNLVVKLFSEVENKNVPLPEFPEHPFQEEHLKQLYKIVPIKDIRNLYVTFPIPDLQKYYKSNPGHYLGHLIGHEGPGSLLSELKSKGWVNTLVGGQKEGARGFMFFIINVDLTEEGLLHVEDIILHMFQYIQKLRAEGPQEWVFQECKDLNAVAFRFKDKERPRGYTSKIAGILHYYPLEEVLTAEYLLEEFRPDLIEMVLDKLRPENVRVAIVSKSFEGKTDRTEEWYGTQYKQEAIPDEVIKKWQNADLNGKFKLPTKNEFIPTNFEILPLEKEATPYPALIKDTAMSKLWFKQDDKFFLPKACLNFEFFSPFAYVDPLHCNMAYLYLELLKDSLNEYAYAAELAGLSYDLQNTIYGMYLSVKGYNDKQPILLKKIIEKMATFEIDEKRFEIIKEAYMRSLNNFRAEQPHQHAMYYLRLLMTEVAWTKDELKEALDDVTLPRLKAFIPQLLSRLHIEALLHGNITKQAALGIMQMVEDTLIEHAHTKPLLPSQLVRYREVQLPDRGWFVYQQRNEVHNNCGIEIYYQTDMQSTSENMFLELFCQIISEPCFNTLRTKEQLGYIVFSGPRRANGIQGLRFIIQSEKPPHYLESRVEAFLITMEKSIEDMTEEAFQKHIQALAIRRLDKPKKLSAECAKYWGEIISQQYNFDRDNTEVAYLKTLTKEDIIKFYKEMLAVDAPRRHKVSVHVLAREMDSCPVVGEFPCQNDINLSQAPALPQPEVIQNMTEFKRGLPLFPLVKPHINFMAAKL
In words: Dose Response: Fluorescence polarization-based cell-based high throughput dose response assay for inhibitors of insulin-degrading enzyme (IDE). [Related pubchem assays: 434962 (Primary screen (IDE inhibitors in singlicate)), 449730 (Counterscreen (Cytotoxicity in triplicate)), 435028 (Confirmation (IDE inhibitors in triplicate)), 434984 (Summary …. The assay is classed as functional. In general terms: Polarisation of emitted light reports the rotation of a fluorescent probe.

Another assay has as its target Bcl-2-like protein 1 (Homo sapiens, UniProt Q07817). In words: blockers of BCLXL peptide binding – biochemical, fluorescence polarization, 1536-well, selectivity assay for MCL1 inhibitor project, dose response (AID 2218).
For assay [5], the target named is T4, Heat shock 70 kDa protein 1A (Homo sapiens, UniProt P0DMV8). Kind of assay: small-molecule inhibition of Hsp70 – biochemical, TR-FRET (AID 786).
The next assay has as its target Genome polyprotein (Hepatitis C virus, UniProt Q2Q167). Kind of assay: disruption of hepatitis C core self-association – biochemical, TR-FRET, dose response (AID 2159).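 Further: blocks dimerization of HCV core protein measured by TR-FRET between tagged core106 pairs.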 Details: species or system Hepacivirus hominis.
The target in assay [6] is Induced myeloid leukemia cell differentiation protein Mcl-1 (Homo sapiens, UniProt Q07820). Kind of assay: blockers of MCL1 binding to BIM peptide – biochemical, fluorescence polarization, BIM-BH3 peptide, 1536-well, dose response (AID 2217).
Assay [7] addresses T4, Heat shock 70 kDa protein 1A. In words: small molecules displacing fluorescent ligand from Hsp70 – biochemical, fluorescence polarization, primary screen (AID 583).
Assay [8] concerns the target Acyl-homoserine lactone acylase PvdQ (Pseudomonas aeruginosa (strain LESB58), UniProt Q9I194). In words: PvdQ acylase enzyme activity blockers – biochemical, fluorescence, plate reader and imaging, cherry-picks, dose response (AID 493231).

Structures are written as SMILES. Active and inactive are the calls of the source.

T4 sequence (P0DMV8 whole entry): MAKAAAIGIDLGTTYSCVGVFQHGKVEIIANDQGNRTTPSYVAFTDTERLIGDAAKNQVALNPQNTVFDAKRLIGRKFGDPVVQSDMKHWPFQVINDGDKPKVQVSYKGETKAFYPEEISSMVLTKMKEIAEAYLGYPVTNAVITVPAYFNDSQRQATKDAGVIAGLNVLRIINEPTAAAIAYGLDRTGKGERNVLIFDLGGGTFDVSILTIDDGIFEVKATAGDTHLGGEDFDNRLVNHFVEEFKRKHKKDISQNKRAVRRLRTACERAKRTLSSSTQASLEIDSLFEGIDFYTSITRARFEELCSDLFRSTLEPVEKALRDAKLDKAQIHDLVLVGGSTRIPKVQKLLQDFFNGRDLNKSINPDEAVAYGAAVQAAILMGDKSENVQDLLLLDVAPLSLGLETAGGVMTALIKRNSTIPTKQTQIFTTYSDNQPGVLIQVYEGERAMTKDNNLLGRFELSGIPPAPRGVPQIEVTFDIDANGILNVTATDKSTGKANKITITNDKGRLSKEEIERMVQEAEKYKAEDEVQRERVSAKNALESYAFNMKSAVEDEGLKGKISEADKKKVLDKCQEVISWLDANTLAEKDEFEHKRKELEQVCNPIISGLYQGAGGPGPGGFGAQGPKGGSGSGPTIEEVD
Sequence of NS3 (A3EZJ3 whole entry): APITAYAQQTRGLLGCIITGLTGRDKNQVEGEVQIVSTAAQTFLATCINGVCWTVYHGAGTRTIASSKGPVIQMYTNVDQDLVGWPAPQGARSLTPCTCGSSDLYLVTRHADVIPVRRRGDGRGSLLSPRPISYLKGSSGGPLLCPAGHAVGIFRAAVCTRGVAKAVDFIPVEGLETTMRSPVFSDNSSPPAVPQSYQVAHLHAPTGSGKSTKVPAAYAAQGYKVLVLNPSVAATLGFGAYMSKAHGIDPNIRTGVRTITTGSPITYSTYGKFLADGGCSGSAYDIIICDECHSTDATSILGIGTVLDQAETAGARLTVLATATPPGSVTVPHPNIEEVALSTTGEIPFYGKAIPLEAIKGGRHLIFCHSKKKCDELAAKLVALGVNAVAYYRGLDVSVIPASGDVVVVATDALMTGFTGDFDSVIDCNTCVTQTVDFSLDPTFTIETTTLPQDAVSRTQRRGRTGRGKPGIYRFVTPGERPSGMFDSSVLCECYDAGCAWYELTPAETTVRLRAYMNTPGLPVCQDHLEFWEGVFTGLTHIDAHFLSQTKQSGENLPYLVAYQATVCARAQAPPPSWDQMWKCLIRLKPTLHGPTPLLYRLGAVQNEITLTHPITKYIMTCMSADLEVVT
Sequence of Genome polyprotein (Q2Q167 whole entry): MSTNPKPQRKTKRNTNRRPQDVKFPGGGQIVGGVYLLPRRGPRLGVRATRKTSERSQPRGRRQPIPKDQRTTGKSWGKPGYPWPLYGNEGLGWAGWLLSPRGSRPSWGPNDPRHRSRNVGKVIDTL
Sequence of Bcl-2-like protein 1 (Q07817 whole entry): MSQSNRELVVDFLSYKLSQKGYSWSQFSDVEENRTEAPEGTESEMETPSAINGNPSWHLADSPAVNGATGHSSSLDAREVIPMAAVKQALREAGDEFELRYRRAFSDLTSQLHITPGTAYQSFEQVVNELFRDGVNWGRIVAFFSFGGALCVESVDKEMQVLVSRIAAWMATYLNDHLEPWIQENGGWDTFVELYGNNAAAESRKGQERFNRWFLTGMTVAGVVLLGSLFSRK
Sequence of Induced myeloid leukemia cell differentiation protein Mcl-1 (Q07820 whole entry): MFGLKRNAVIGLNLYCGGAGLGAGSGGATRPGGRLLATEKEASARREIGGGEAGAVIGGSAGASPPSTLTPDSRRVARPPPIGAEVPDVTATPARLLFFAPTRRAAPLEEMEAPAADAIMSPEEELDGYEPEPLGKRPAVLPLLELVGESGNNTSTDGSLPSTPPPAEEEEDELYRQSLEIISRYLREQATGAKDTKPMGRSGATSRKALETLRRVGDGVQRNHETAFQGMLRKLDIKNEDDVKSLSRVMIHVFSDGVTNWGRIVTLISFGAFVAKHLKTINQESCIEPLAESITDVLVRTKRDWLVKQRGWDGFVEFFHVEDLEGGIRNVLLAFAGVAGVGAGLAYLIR
Sequence of Cytochrome P450 2D6 (P10635 whole entry): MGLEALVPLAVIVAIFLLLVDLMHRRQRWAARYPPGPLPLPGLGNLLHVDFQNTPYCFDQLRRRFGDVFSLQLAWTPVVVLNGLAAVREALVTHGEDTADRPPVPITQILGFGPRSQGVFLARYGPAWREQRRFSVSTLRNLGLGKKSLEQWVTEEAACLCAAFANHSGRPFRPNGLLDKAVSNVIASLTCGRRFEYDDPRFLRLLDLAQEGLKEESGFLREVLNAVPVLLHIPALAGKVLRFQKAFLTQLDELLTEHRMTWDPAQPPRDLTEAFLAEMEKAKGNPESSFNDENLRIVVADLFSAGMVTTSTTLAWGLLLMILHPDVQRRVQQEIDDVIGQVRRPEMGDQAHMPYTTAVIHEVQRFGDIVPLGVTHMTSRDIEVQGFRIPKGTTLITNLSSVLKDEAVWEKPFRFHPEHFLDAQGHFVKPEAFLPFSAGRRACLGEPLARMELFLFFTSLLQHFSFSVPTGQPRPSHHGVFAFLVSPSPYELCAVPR
Sequence of Acyl-homoserine lactone acylase PvdQ (Q9I194 24-193 limits assumed): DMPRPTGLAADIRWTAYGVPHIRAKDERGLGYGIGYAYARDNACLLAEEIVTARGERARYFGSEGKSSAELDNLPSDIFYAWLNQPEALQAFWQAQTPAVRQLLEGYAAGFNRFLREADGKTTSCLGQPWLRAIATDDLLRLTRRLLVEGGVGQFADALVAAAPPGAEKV
Sequence of Acyl-homoserine lactone acylase PvdQ (Q9I194 217-762 limits assumed): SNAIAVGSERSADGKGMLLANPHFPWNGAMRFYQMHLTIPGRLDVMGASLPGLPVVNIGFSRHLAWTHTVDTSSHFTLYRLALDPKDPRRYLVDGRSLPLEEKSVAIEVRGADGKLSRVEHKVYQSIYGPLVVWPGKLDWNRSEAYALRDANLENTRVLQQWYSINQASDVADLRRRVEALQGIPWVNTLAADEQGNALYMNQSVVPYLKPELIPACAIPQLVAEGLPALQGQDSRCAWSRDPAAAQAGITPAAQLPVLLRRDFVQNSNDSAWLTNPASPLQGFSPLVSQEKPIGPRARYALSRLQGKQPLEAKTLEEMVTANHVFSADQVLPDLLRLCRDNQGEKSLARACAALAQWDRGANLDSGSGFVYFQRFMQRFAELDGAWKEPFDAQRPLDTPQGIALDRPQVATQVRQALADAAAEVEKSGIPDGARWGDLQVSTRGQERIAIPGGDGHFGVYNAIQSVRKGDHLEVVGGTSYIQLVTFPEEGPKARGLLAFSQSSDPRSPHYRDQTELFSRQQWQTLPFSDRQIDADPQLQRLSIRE
Sequence of Cytochrome P450 2C19 (P33261 whole entry, the tested form may be a part): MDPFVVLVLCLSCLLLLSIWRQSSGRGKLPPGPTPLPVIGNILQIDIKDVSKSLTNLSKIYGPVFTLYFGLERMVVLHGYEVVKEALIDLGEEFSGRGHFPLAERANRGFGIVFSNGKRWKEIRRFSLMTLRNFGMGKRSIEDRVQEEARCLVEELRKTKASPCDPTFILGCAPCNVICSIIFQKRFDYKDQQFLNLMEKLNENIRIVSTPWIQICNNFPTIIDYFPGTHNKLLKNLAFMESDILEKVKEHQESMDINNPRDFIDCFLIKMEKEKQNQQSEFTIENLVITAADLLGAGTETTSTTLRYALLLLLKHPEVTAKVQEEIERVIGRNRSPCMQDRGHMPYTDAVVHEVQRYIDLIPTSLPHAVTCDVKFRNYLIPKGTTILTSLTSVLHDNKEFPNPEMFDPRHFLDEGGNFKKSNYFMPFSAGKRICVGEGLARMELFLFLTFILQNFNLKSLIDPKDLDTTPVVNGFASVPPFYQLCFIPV

As for `COc1cc2oc(-c3ccccc3)cc(=O)c2cc1O`, the AC50 on Cytochrome P450 2D6 is 31.6 µM (inconclusive); on Cytochrome P450 2C19, 5.01 µM (inconclusive).

Turning to `Cc1ccc(C(=O)O)cc1-c1ccc(/C=C2\SC(=O)N(CC(=O)Nc3ccccc3)C2=O)o1`, the IC50 was 2.75 µM (active) in assay [1] and 5.39 µM (active) at NS3.

For `Cc1c(-n2cc(C(=O)c3cc(Cl)ccc3O)cc(C#N)c2=O)c(=O)n(-c2ccccc2)n1C`, the IC50 is 13 µM (active) in assay [2], 7.48 µM (active) in assay [3], > 55.7 µM (not active) in [4] and > 55.9 µM (not active) at Insulin-degrading enzyme.

In the case of `COc1ccc(Br)cc1/C=c1\sc2nc(-c3ccco3)nn2c1=O`, the IC50 on Bcl-2-like protein 1 is > 109 µM (not active); in [5], > 100 µM (not active); against Genome polyprotein, > 49.8 µM (not active); in assay [6], 10.8 µM (not active); in assay [7], > 100 µM (not active).

For the compound `COc1ccc(/C(C#N)=C/c2ccccn2)cc1`, in assay [8], the AC50 was 19.9 µM (active).
